Results on 15 compounds are retold here after ChEMBL document CHEMBL3046544, “Inhibitory Activity of N-Substituted-2-piperidones with a 1, 4-Benzodioxan Ring on Germination of Barnyardgrass” (J Pestic Sci, 2001).

Holding throughout (assay type): functional
Settings in all cases: 120 h

For assay [1], the system named is Echinochloa esculenta. Kind of assay: Herbicidal activity against Echinochloa esculenta assessed as inhibition of seed germination at 100 nM after 5 days relative to control.
Assay [2] relates to Echinochloa esculenta. Put plainly: Herbicidal activity against Echinochloa esculenta assessed as inhibition of seed germination at 1000 nM after 5 days relative to control.
For assay [3], the system named is Echinochloa esculenta. Put plainly: Herbicidal activity against Echinochloa esculenta assessed as inhibition of seed germination at 1 nM after 5 days relative to control.
Assay [4] relates to Echinochloa esculenta. Put plainly: Herbicidal activity against Echinochloa esculenta assessed as inhibition of seed germination at 10 nM after 5 days relative to control.

What is called inhibition is how much of the control response was suppressed.

For `Cc1ccc(C(O)C2CCCN(Cc3ccccc3)C2=O)cc1` (mixture of isomers), the inhibition at 0.1 µM with Echinochloa esculenta [1] was less than 49%. In addition, the inhibition at 1 µM in the assay with Echinochloa esculenta [2] was more than 90%. Further, in the assay on Echinochloa esculenta [3], the inhibition at 0.001 µM was less than 49%. The inhibition at 0.01 µM in the assay on Echinochloa esculenta [4] is less than 49%.
For `COc1ccccc1C(O)C1CCCN(Cc2ccccc2)C1=O` (mixture of isomers), the inhibition at 0.1 µM in the assay on Echinochloa esculenta [1] is less than 49%. The inhibition at 1 µM in the assay with Echinochloa esculenta [2] is 50%. Besides, in the assay with Echinochloa esculenta [3], the inhibition at 0.001 µM was less than 49%. The inhibition at 0.01 µM in the assay with Echinochloa esculenta [4] was less than 49%.
Turning to `COc1cccc(C(O)C2CCCN(Cc3ccccc3)C2=O)c1` (mixture of isomers), the inhibition at 0.1 µM in the assay with Echinochloa esculenta [1] is less than 49%. The inhibition at 1 µM in the assay with Echinochloa esculenta [2] is less than 49%. The inhibition at 0.001 µM in the assay with Echinochloa esculenta [3] is less than 49%. In the assay with Echinochloa esculenta [4], the inhibition at 0.01 µM was less than 49%.
On to `COc1ccc(C(O)C2CCCN(Cc3ccccc3)C2=O)cc1` (mixture of isomers), for which, in the assay on Echinochloa esculenta [1], the inhibition at 0.1 µM is less than 49%. Further, the inhibition at 1 µM in the assay on Echinochloa esculenta [2] is more than 90%. Besides, the inhibition at 0.001 µM in the assay on Echinochloa esculenta [3] is less than 49%. In the assay on Echinochloa esculenta [4], the inhibition at 0.01 µM was less than 49%.
As to `O=C1C(C(O)c2ccccc2Cl)CCCN1Cc1ccccc1` (mixture of isomers), the inhibition at 0.1 µM with Echinochloa esculenta [1] is less than 49%. Also, the inhibition at 1 µM with Echinochloa esculenta [2] was more than 90%. In addition, in the assay with Echinochloa esculenta [3], the inhibition at 0.001 µM was less than 49%. Further, the inhibition at 0.01 µM in the assay on Echinochloa esculenta [4] was less than 49%.
In the case of `O=C1C(C(O)c2cccc(Cl)c2)CCCN1Cc1ccccc1` (mixture of isomers), in the assay with Echinochloa esculenta [1], the inhibition at 0.1 µM was less than 49%. For the same compound, the inhibition at 1 µM in the assay with Echinochloa esculenta [2] is more than 90%. The inhibition at 0.001 µM with Echinochloa esculenta [3] is less than 49%. For the same compound, the inhibition at 0.01 µM in the assay on Echinochloa esculenta [4] was less than 49%.
For the compound `O=C1C(C(O)c2ccc(Cl)cc2)CCCN1Cc1ccccc1` (mixture of isomers), the inhibition at 0.1 µM with Echinochloa esculenta [1] amounted to 50%. For the same compound, the inhibition at 1 µM with Echinochloa esculenta [2] is more than 90%. In addition, in the assay with Echinochloa esculenta [3], the inhibition at 0.001 µM is less than 49%. In addition, in the assay on Echinochloa esculenta [4], the inhibition at 0.01 µM is less than 49%.
Turning to `O=C1C(C(O)c2ccccc2[N+](=O)[O-])CCCN1Cc1ccccc1` (mixture of isomers), the inhibition at 0.1 µM with Echinochloa esculenta [1] is less than 49%. The inhibition at 1 µM with Echinochloa esculenta [2] is 50%. The inhibition at 0.001 µM in the assay on Echinochloa esculenta [3] is less than 49%. In the assay on Echinochloa esculenta [4], the inhibition at 0.01 µM was less than 49%.
Regarding `O=C1C(C(O)c2cccc([N+](=O)[O-])c2)CCCN1Cc1ccccc1` (mixture of isomers), the inhibition at 0.1 µM with Echinochloa esculenta [1] is less than 49%. Also, in the assay on Echinochloa esculenta [2], the inhibition at 1 µM amounted to 50%. In addition, the inhibition at 0.001 µM in the assay with Echinochloa esculenta [3] is less than 49%. Moreover, the inhibition at 0.01 µM in the assay on Echinochloa esculenta [4] is less than 49%.
For `O=C1C(C(O)c2ccc([N+](=O)[O-])cc2)CCCN1Cc1ccccc1` (mixture of isomers), the inhibition at 0.1 µM in the assay with Echinochloa esculenta [1] is less than 49%. The inhibition at 1 µM with Echinochloa esculenta [2] was 50%. Moreover, the inhibition at 0.001 µM in the assay with Echinochloa esculenta [3] was less than 49%. In addition, the inhibition at 0.01 µM in the assay with Echinochloa esculenta [4] is less than 49%.
`O=C1C(C(O)c2ccccc2C(F)(F)F)CCCN1Cc1ccccc1` (mixture of isomers): the inhibition at 0.1 µM with Echinochloa esculenta [1] was less than 49%. In the assay on Echinochloa esculenta [2], the inhibition at 1 µM turned out to be 50%. For the same compound, the inhibition at 0.001 µM in the assay on Echinochloa esculenta [3] was less than 49%. Moreover, the inhibition at 0.01 µM with Echinochloa esculenta [4] is less than 49%.
`O=C1C(C(O)c2ccc(C(F)(F)F)cc2)CCCN1Cc1ccccc1` (mixture of isomers): in the assay with Echinochloa esculenta [1], the inhibition at 0.1 µM is less than 49%. Further, the inhibition at 1 µM in the assay on Echinochloa esculenta [2] amounted to 50%. Further, the inhibition at 0.001 µM in the assay with Echinochloa esculenta [3] was less than 49%. Further, the inhibition at 0.01 µM in the assay with Echinochloa esculenta [4] is less than 49%.
For the compound `O=C1C(C(O)c2ccc3c(c2)OCO3)CCCN1Cc1ccccc1` (mixture of isomers), in the assay on Echinochloa esculenta [1], the inhibition at 0.1 µM was less than 49%. For the same compound, the inhibition at 1 µM in the assay on Echinochloa esculenta [2] is less than 49%. In the assay on Echinochloa esculenta [3], the inhibition at 0.001 µM was less than 49%. In addition, the inhibition at 0.01 µM in the assay on Echinochloa esculenta [4] is less than 49%.
In the case of `O=C1C(C(O)c2cccc(O)c2)CCCN1Cc1ccccc1` (mixture of isomers), in the assay with Echinochloa esculenta [1], the inhibition at 0.1 µM was less than 49%. The inhibition at 1 µM with Echinochloa esculenta [2] came out at 50%. The inhibition at 0.001 µM in the assay with Echinochloa esculenta [3] is less than 49%. For the same compound, the inhibition at 0.01 µM with Echinochloa esculenta [4] is less than 49%.
Regarding `O=C1C(C(O)c2ccc(O)cc2)CCCN1Cc1ccccc1` (mixture of isomers), the inhibition at 0.1 µM in the assay on Echinochloa esculenta [1] was less than 49%. Further, the inhibition at 1 µM in the assay on Echinochloa esculenta [2] is 50%. Besides, the inhibition at 0.001 µM in the assay on Echinochloa esculenta [3] was less than 49%. For the same compound, the inhibition at 0.01 µM with Echinochloa esculenta [4] was less than 49%.
